This assay relates to Plasmodium falciparum. The assay is described as follows: GSK_TCMDC: Inhibition of Plasmodium falciparum 3D7 in whole erythrocytes, using parasite LDH activity as an index of growth. In kind it is functional, organism-based. The note with it: Plasmodium falciparum, 3D7.
On to `O=C(/C=C/c1ccc(Cl)c(Cl)c1)NCCCCN1CCC(c2c[nH]c3ccccc23)CC1`, for which the XC50 turned out to be 0.859 µM.

`CN1CCCN(Cc2ccc(-c3cccc(NC(=O)c4cccc(Cl)c4)c3)cc2)CC1`: the XC50 worked out at 0.837 µM.

In turn, `CC1CN(Cc2ccccc2)CCN1c1ccc(NC(=O)c2ccc(F)cc2)cc1` (stereo not drawn) returned an XC50 of 1.01 µM.

As to `Cc1nc(-c2nc(N3CCC(C(N)=O)CC3)ncc2-c2ccsc2)sc1C`, the XC50 came out at 0.902 µM.

For `Fc1ccc2[nH]c(-c3ccc(-c4ccc(CN5CCN(CCN6CCOCC6)CC5)cc4)s3)nc2c1`, the XC50 worked out at 0.147 µM.

For `CCC(CC(C)C(=O)O)=C(c1ccccc1)c1ccccc1` (stereo not drawn), the XC50 worked out at 0.224 µM.

For `COc1ccc(O)c(CN2CCN(c3cc(C)ccc3C)CC2)c1`, the XC50 stood at 1.01 µM.

Consider `Cc1nc(C)c(-c2ccc(Oc3ccc(Cl)c(Cl)c3)cc2)c(O)c1Cl`, for which the XC50 was 0.106 µM.

Consider `NCC(=O)NC12CC3CC(CC(C3)C1)C2`, for which the XC50 came to 1.2 µM.

Consider `CN(C)CCNCc1ccc(-c2ccc(-c3nc4ccccc4[nH]3)s2)cc1`, for which the XC50 came out at 0.569 µM.

In turn, `CC1(C)NC(=N)NC(=N)N1OCC=Cc1ccccc1` displayed an XC50 of 0.00424 µM.

The compound `CC(C)(C)CCOC(=O)N1CCc2c(cc(O)c(O)c2Cl)C(c2ccc(O)cc2)C1` (stereo not drawn) returned an XC50 of 0.752 µM.

In turn, `Cc1ccc(Cc2c(N)nc3nc(N)nc(N)c3c2C)cc1` showed an XC50 of 0.188 µM.

`COc1cc(C(=O)NCCCN2CCN(c3cccc(Cl)c3)CC2)ccc1-c1cc2cc(Cl)c(Cl)cc2[nH]1` showed an XC50 of 0.468 µM.

Take `Cc1cc(NC(=O)c2cccs2)ccc1OC1CCN(Cc2ccc(C#N)cc2)CC1`: the XC50 is 0.721 µM.

Take `Cn1ccnc1Sc1ncccc1[N+](=O)[O-]`: the XC50 is 0.968 µM.

`O=C(Nc1c(F)cccc1F)c1cccc(-c2nn3ccccc3c2-c2ccnc(Nc3cccc(-c4cnco4)c3)n2)c1` had an XC50 of 0.361 µM.

On to `CC(=O)Nc1ccc(OCCCN(Cc2ccccc2OC(F)(F)F)c2ccc(C(F)(F)F)c(C#N)c2)c(Cl)c1`, for which the XC50 worked out at 0.813 µM.

In turn, `CC(C)(C)OC(=O)c1c(NC(=O)/C=C/c2ccc(O)c(O)c2)sc2c1CCCC2` had an XC50 of 0.819 µM.

Compound `COc1cccc(C(=O)N2CCOC(CCN3CCC(c4ccccc4)CC3)(c3ccc(Cl)c(Cl)c3)C2)c1` (stereo not drawn) gave an XC50 of 0.505 µM.

For `COc1ccc(OC)c(-c2ccc(O)c(CNCC(C)c3ccccc3)c2)c1` (stereo not drawn), the XC50 worked out at 0.933 µM.

For `CC(CN(C)C)C(=O)Nc1cccc(-c2ccc(-c3nc4cc(C(F)(F)F)ccc4[nH]3)cc2)c1` (stereo not drawn), the XC50 stood at 0.248 µM.

As to `CC(C)(C)c1ccc(CNCC(C)(C)c2nc(-c3ccnc(N)n3)c(-c3ccc(Cl)c(O)c3)[nH]2)cc1`, the XC50 came to 0.697 µM.

As to `Cc1cccc2nc(-c3cccc(-c4cccc(NC(=O)NCc5cccc(F)c5)c4)c3)[nH]c12`, the XC50 worked out at 0.453 µM.

For `O=S(=O)(NCCN1CCCC1)c1ccc(-c2ccc(CNC3Cc4ccccc4C3)cc2)cc1F`, the XC50 is 0.999 µM.

For the compound `CCOc1cc(Cl)c(C(C)NC(=O)c2cccc(OC)c2)cc1OCC` (stereo not drawn), the XC50 is 0.956 µM.

Turning to `O=C(/C=C/c1ccc(C(F)(F)F)cc1)NCCCCCN1CCN(C(=O)Nc2ccc(Cl)c(Cl)c2)CC1`, the XC50 came to 0.867 µM.

`Cc1nc(-c2nc(NCc3ccccn3)ncc2-c2ccsc2)sc1C` came in with an XC50 of 0.559 µM.

Compound `CCCNCc1ccc(-c2ccc(CN(CCOC)C(=O)CCc3ccc(OC)cc3)cc2)nc1` had an XC50 of 0.981 µM.

Consider `CCCNCCc1ccc(NS(=O)(=O)c2cccc(-c3ccc(Cl)cc3)c2)cc1`, for which the XC50 was 0.975 µM.

Compound `CN(C)CCCNc1ncnc2c1[nH]c1ccc(Cl)cc12` registered an XC50 of 0.279 µM.

In turn, `Cc1ccc(C2(C)CC(C)(C)N(C(=O)COc3ccc4ccccc4c3)c3ccccc32)cc1` (stereo not drawn) came in with an XC50 of 0.113 µM.

Turning to `Cc1[nH]c2ccccc2c1C=NNc1nc(=Nc2ccccc2)[nH]c(=Nc2ccccc2)[nH]1`, the XC50 stood at 0.926 µM.

Regarding `CC[C@H]1CN2CCc3cc(OC)c(OC)cc3[C@@H]2C[C@@H]1C[C@H]1NCCc2c1cc(OC)c(OC)c2Br`, the XC50 came to 0.65 µM.

In turn, `O=C(N[C@@H](Cc1ccccc1)C(=O)NCCN1CCOCC1)c1ccc(O)c(-c2ccc(Cl)c(Cl)c2)c1` gave an XC50 of 0.921 µM.

Consider `CN(C)CCNC(=O)c1cc2c(-c3ccc(Cl)cc3)nn(C)c2s1`, for which the XC50 came out at 0.665 µM.

For `COc1nc2c(CCN3CCC(NCc4ccc5c(n4)NC(=O)CO5)CC3)c(Cl)cnc2cc1F`, the XC50 is 0.417 µM.

Take `Cc1cc(N)c2cc(NC(=O)c3cccc(C(=O)Nc4ccc5nc(C)cc(N)c5c4)c3)ccc2n1`: the XC50 turned out to be 0.256 µM.

Consider `Nc1nc(N)c2c(CCc3ccc(Cl)c(Cl)c3)cccc2n1`, for which the XC50 was 0.669 µM.

`Cc1cccc2nc(-c3cccc(-c4ccc(NC(=O)CCc5c[nH]cn5)cc4)c3)[nH]c12` showed an XC50 of 0.302 µM.

On to `CC(Oc1ccc(Cl)cc1)C(=O)Nc1cc(C(F)(F)F)ccc1-n1cncn1` (stereo not drawn), for which the XC50 was 0.151 µM.

As to `CNCCNCc1cccc(-c2ccc(-c3nc4ccccc4[nH]3)s2)c1`, the XC50 stood at 0.83 µM.

In turn, `Cc1ccc(S(=O)(=O)n2nccc2-c2c(-c3ccc(Cl)cc3)noc2C)cc1` had an XC50 of 0.809 µM.

`CCOc1cc(C(=O)N[C@@H](Cc2ccccc2)[C@H](O)CNCc2cc(OC)cc(OC)c2)cc(N2CCCC2=O)c1` returned an XC50 of 0.852 µM.

In the case of `CCCOc1ccccc1-c1nc2[nH]c3c(c2c(=O)[nH]1)CCN(C)C3`, the XC50 was found to be 0.367 µM.

Turning to `O=[N+]([O-])c1ccc(-c2ccc(C=NNc3nc(Nc4ccccc4)nc(Nc4ccccc4)n3)o2)cc1`, the XC50 turned out to be 1.43 µM.

Regarding `COCCOc1nc(N)nc2ncc(Cc3cc(OC)ccc3OC)c(C)c12`, the XC50 came out at 0.426 µM.

The compound `COc1cc2c(cc1NC(=O)CN1CCN(C(=O)c3ccco3)CC1)oc1ccccc12` came in with an XC50 of 0.422 µM.

`CCc1ccc(Cc2cnc3nc(N)nc(N)c3c2C)cc1CC` yielded an XC50 of 0.285 µM.

In turn, `CC(C)CN1CCCN(Cc2cccc(NC(=O)c3ccc(-c4ccccc4)cc3)c2)CC1` yielded an XC50 of 0.883 µM.

Take `Cc1nc(N)nc(N)c1C#CC1CCCC1`: the XC50 was 0.768 µM.

The compound `CC1CCCN(C(=O)C(C)Nc2cc(Cl)ccc2N2CCOCC2)C1` (stereo not drawn) showed an XC50 of 0.316 µM.

`CCCC(C)c1ccc(N2C(N)=NC(N)=NC2(C)C)cc1` (stereo not drawn) registered an XC50 of 0.00627 µM.

For `O=C(Nc1ccc(C(=O)OCC(c2ccccc2)c2ccccc2)cc1)N[C@@H](Cc1ccc(O)cc1)C(=O)NC1CCN(Cc2ccc(O)cc2)C1` (stereo partly drawn), the XC50 worked out at 0.782 µM.

Consider `CCc1c(C)nc(-n2nc(C)cc2NC(=O)CC(c2ccccc2)c2ccccc2)[nH]c1=O`, for which the XC50 came out at 0.652 µM.

In turn, `CC(C)(C)c1ccc(CN2CCC(CNC(=O)c3cc(-c4ccccc4)nc4ccccc34)CC2)cc1` had an XC50 of 1.02 µM.

On to `CC1CCN(C(=O)C(Cc2c[nH]c3ccccc23)NS(=O)(=O)c2ccc(Cl)cc2)CC1` (stereo not drawn), for which the XC50 was 0.717 µM.

As for `CN1CCN(c2ccnc3ccc(NC(=O)Nc4ccc5c(c4)CCC5=O)cc23)CC1`, the XC50 came to 0.33 µM.

As for `COc1ccc(NC(=O)c2ccc(Br)c(C)c2)cc1N1CCN(CCCc2c[nH]c3ccccc23)CC1`, the XC50 was found to be 0.382 µM.

Consider `Cc1ccc(-c2cc(C(=O)Nc3ccc(S(=O)(=O)N4CCCC(C)C4)cc3)[nH]n2)c(O)c1` (stereo not drawn), for which the XC50 was 0.28 µM.

`CN1CCN(c2cccc(-c3nnc(-c4ccc(OCC(=O)NCc5ccc(C(F)(F)F)cc5)c([N+](=O)[O-])c4)o3)c2)CC1` came in with an XC50 of 0.661 µM.

`Cc1ccccc1C1CCN(C2CCC(NC(=O)c3cc(-c4ccc(Cl)cc4)cs3)CC2)CC1` (stereo not drawn) gave an XC50 of 0.158 µM.

The compound `Fc1ccc2[nH]c(-c3cccc(-c4ccc(CNCc5ccccc5)cc4)c3)nc2c1` yielded an XC50 of 0.266 µM.

The values above are taken from ChEMBL document CHEMBL1157539, “Thousands of chemical starting points for antimalarial lead identification” (Nature, 2010).
